According to patent publication US20200078404A1, “COMBINATION OF A CELL THERAPY AND AN IMMUNOMODULATORY COMPOUND” (Juno Therapeutics, Inc., priority 2017, published 2020):

Assays:
[1] = system: anti-CD19 CAR-expressing T cells; assay: Cytokine production after anti-idiotypic antibody stimulation; settings: anti-idiotypic antibody 0.3-30 μg/ml, 24 hours; Compound 1 100, 1000 nM; lenalidomide 500, 5000 nM
[2] = system: anti-BCMA CAR-T cells; assay: Prestimulation of anti-BCMA CAR-T cells on BCMA beads for 7 days: phenotype, cytolytic activity and cytokines with RPMI-8226; assay type: cell-based, human
Method: Expression of CD25, PD-1, Tim3 and Lag3 on CAR T cells (using an antibody for surrogate CAR marker) cultured under the different conditions then was assessed by flow cytometry.
Percentage killing was normalized to anti-BCMA CAR T cells prestimulated on beads in the presence of vehicle. Cytokine production was assessed by ELISA from supernatant following culture with target cells for 24 hours. Experiments were performed twice in 3 donors. […] P values were obtained by likelihood ratio tests comparing the full model with the effect of interest against the model without the effect of interest.

[3] = system: anti-CD19 CAR-expressing T cells; assay: T cell surface markers of anti-CD19 CAR-expressing T cells incubated with K562.CD19; assay type: cell-based, human; settings: all donors and E:T ratios
[4] = system: anti-CD19 CAR+ T cells; assay: Serial restimulation of anti-CD19 CAR+ T cells with K562-CD19 cells: expansion; assay type: cell-based, human; settings: 1 μM lenalidomide, 4 rounds of stimulation, 12 days, two donors
Method: The ability of anti-CD19 CAR+ T cells to expand ex vivo following repeated stimulations was assessed using methods substantially as described in Example 2. […] For each donor, cells were harvested every 3-5 days from each experimental condition in the wells and counted, and restimulated with new target cells using the same culture conditions after resetting cell number to initial seeding density for each round. A total of 4 rounds of stimulation during a 12 day culture period were carried out. For each round of stimulation, the total number of cells was determined, and the results were depicted as the fold-change of cell number after stimulation (FIG. 17A) or number of doublings compared to initial number (FIG. 17B).

[5] = 1 μM lenalidomide during the prestimulation period
[6] = 1 μM lenalidomide, 7 days on BCMA beads

## Nc1cccc2c1CN(C1CCC(=O)NC1=O)C2=O (stereo not shown) [lenalidomide, 3-(4-amino-1-oxo-1,3-dihydro-2H-isoindol-2-yl)piperidine-2,6-dione]
[1]
  IFN-γ, IL-2 and TNF-α production: increased relative to the vehicle control
[2]; [5]
  cytokine production of prestimulated CAR-T cells: trend toward increased cytokine production
  cytolytic function of prestimulated CAR-T cells: preserved cytolytic function
[2]; [6]
  CD25 expression (MFI): increasing CD25 expression
  PD-1 expression (MFI): reduced PD-1 expression
[2]; 7-day period, all donors
  total cell count: did not alter the total cell count
[2]; 7 days on BCMA beads, 3 healthy donors
  CAR+ viability: significantly increased CAR+ viability
[2]; CD4+ and CD8+ CAR+ populations, all donors
  percentage positive for Lag3 expression: increased
[2]; CD4+ population
  percentage of PD-1+ cells: decrease in the percentage of PD-1+ cells
[2]; CD8+ population, three donors
  surface expression of Tim3: increased the surface expression of Tim3 in the CD8+ population
[3]
  expression of CD27: downregulated in a concentration-dependent manner
  expression of CD45RO: increased
[4]
  cell expansion of anti-CD19 CAR+ T cells: no change or only a minor effect in cell expansion
